Measurements taken from US10947216B2, “Amide compounds and method for making and using” (Rigel Pharmaceuticals, Inc., priority 2016, dated 2021).
Counter-ions that a name gives are not always drawn.

System: IL-23p19
Assay: LPS Induced IL23p19 in THP-1 Cells (with IFNγ Primed) Assay
Type: cell-based, human
Conditions: Homo sapiens, THP-1, THP-1 cells, IFNγ (50 ng/mL) primed, 1 hour compound pre-incubation, LPS 1 ug/mL 18 hours, 10 pt; read-out: IL23-p19 ELISA, THP1-IFNy, LPS, 10 pt EC50
Protocol: LPS Induced IL23p19 in THP-1 Cells (with IFNγ Primed) Assay
Method THP-1 Cells Stimulation:
On day 1, 50K/well THP-1 cells were seeded and primed with IFNγ (50 ng/mL) in 384-well plates for about 18 hours in RPMI media with 10% FBS. […] 50 μL/well 2× compound was added to 50 μL/well THP-1 cells (with IFNγ primed) in duplicate in 384 well tissue culture plates. […] Day 3, after stimulation for 18 hours at 37° C., 5% CO2, the assay plate was centrifuged and 70 μL/well supernatant was harvested. IL-23p19 protein in 70 μL/well of supernatant was measured by sandwich ELISA, and 25 μl/well Cell Titer Glo reagent was added to the remaining cells to measure compound toxicity.
Human IL-23p19 Sandwich ELISA:
Maxisorp immuno ELISA plates were pre-coated with 25 μL/well of anti-IL-23p19 capture antibody (2.5 ug/mL) in PBS overnight at room temperature. After washing with 1×PBST, the plates were blocked using 100 μL/well of 1% BSA in PBS for 2 hours at room temperature. The plates were washed three times with 1×PBST and 70 μL/well supernatant were added. The plates were incubated at room temperature for 2 hours with shaking and washed three times with 1×PBST. 25 μL/well of biotin labeled anti-IL-12(p40/p70) detection antibody (100 ng/mL) in PBS with 1% BSA was added and the plates were incubated at room temperature for 2 hours with shaking. After washing three times with 1×PBST, 25 μL/well of streptavidin-HRP (1:200) in PBS with 1% BSA was added and the plates were incubated at room temperature for 20 minutes with shaking. The plates were washed three times with 1×PBST and 25 μL/well of Super Signal ELISA Pico Chemiluminescent Substrate were added. The plates were read with a luminometer, and the chemiluminescence values were entered into Athena (Rigel) for curve fitting, EC50 calculation, and database storage.

Structure (SMILES)	EC50
Cn1cc(NC(=O)c2cccc(-c3cncc(F)c3)n2)c(-c2ccccn2)n1 [Compound I-3, 5′-fluoro-N-(1-methyl-3-(pyridin-2-yl)-1H-pyrazol-4-yl)-[2,3′-bipyridine]-6-carboxamide]	21.5 µM
Cn1cc(NC(=O)c2cccc(-c3cncc(C#N)c3)n2)c(-c2ccccn2)n1 [Compound I-4, 5′-cyano-N-(1-methyl-3-(pyridin-2-yl)-1H-pyrazol-4-yl)-[2,3′-bipyridine]-6-carboxamide]	1900 µM
Cn1cc(NC(=O)c2cccc(-c3cncnc3)n2)c(-c2ccccn2)n1 [Compound I-5, N-(1-methyl-3-(pyridin-2-yl)-1H-pyrazol-4-yl)-6-(pyrimidin-5-yl)picolinamide]	40.1 µM
Cn1cc(NC(=O)c2cccc(-c3ccc[nH]3)n2)c(-c2ccccn2)n1 [Compound I-10, N-(1-methyl-3-(pyridin-2-yl)-1H-pyrazol-4-yl)-6-(1H-pyrrol-2-yl)picolinamide]	655 µM
Cn1cc(NC(=O)c2cccc(-c3cncc(C(C)(C)O)c3)n2)c(-c2ccccn2)n1 [Compound I-14, 5′-(2-hydroxypropan-2-yl)-N-(1-methyl-3-(pyridin-2-yl)-1H-pyrazol-4-yl)-[2,3′-bipyridine]-6-carboxamide]	1.52 µM
Cc1cc(-c2cccc(C(=O)Nc3cn(C)nc3-c3ccccn3)n2)ccn1 [Compound I-15, 2′-methyl-N-(1-methyl-3-(pyridin-2-yl)-1H-pyrazol-4-yl)-[2,4′-bipyridine]-6-carboxamide]	63.6 µM
Cn1cc(NC(=O)c2cccc(-c3cncc(C(F)(F)F)c3)n2)c(-c2ccccn2)n1 [Compound I-17, N-(1-methyl-3-(pyridin-2-yl)-1H-pyrazol-4-yl)-5′-(trifluoromethyl)-[2,3′-bipyridine]-6-carboxamide]	58.3 µM
COc1ccc(-c2cccc(C(=O)Nc3cn(C)nc3-c3ccccn3)n2)cn1 [Compound I-20, 6′-methoxy-N-(1-methyl-3-(pyridin-2-yl)-1H-pyrazol-4-yl)-[2,3′-bipyridine]-6-carboxamide]	128 µM
COc1cc(-c2cccc(C(=O)Nc3cn(C)nc3-c3ccccn3)n2)ccn1 [Compound I-21, 2′-methoxy-N-(1-methyl-3-(pyridin-2-yl)-1H-pyrazol-4-yl)-[2,4′-bipyridine]-6-carboxamide]	398 µM
Cn1cc(NC(=O)c2cccc(-c3cncc(OCC(F)(F)F)c3)n2)c(-c2ccccn2)n1 [Compound I-24, N-(1-methyl-3-(pyridin-2-yl)-1H-pyrazol-4-yl)-5′-(2,2,2-trifluoroethoxy)-[2,3′-bipyridine]-6-carboxamide]	101 µM
Cn1cc(NC(=O)c2cccc(-c3cncc(N4CCOCC4)c3)n2)c(-c2ccccn2)n1 [Compound I-37, N-(1-methyl-3-(pyridin-2-yl)-1H-pyrazol-4-yl)-5′-morpholino-[2,3′-bipyridine]-6-carboxamide]	0.587 µM
Cn1cc(NC(=O)c2cccc(-c3cncc(S(C)(=O)=O)c3)n2)c(-c2ccccn2)n1 [Compound I-39, N-(1-methyl-3-(pyridin-2-yl)-1H-pyrazol-4-yl)-5′-(methylsulfonyl)-[2,3′-bipyridine]-6-carboxamide]	1.39 µM
Cn1cc(NC(=O)c2cccc(-c3ccnc(C(N)=O)c3)n2)c(-c2ccccn2)n1 [Compound I-41, N6-(1-methyl-3-(pyridin-2-yl)-1H-pyrazol-4-yl)-[2,4-bipyridine]-2′,6-dicarboxamide]	116 µM
Cn1cc(NC(=O)c2cccc(-c3ccnc(C#N)c3)n2)c(-c2ccccn2)n1 [Compound I-42, 2′-cyano-N-(1-methyl-3-(pyridin-2-yl)-1H-pyrazol-4-yl)-[2,4′-bipyridine]-6-carboxamide]	25.5 µM
Cn1cc(NC(=O)c2cccc(-c3cnc4cc[nH]c4c3)n2)c(-c2ccccn2)n1 [Compound I-45, N-(1-methyl-3-(pyridin-2-yl)-1H-pyrazol-4-yl)-6-(1H-pyrrolo[3,2-b]pyridin-6-yl)picolinamide]	3.46 µM
Cn1cc(NC(=O)c2cccc(-c3ccc4[nH]ccc4c3)n2)c(-c2ccccn2)n1 [Compound I-46, 6-(1H-indol-5-yl)-N-(1-methyl-3-(pyridin-2-yl)-1H-pyrazol-4-yl)picolinamide]	3.5 µM
Cn1cc(NC(=O)c2cccc(-c3ccc4cc[nH]c4c3)n2)c(-c2ccccn2)n1 [Compound I-47, 6-(1H-indol-6-yl)-N-(1-methyl-3-(pyridin-2-yl)-1H-pyrazol-4-yl)picolinamide]	3.6 µM

Structure (SMILES)	EC50
Cc1cccc(-c2cccc(C(=O)Nc3cn(C)nc3-c3ccccn3)n2)c1 [Compound I-49, N-(1-methyl-3-(pyridin-2-yl)-1H-pyrazol-4-yl)-6-(m-tolyl)picolinamide]	72.1 µM
Cc1ccc(-c2cccc(C(=O)Nc3cn(C)nc3-c3ccccn3)n2)cc1 [Compound I-50, N-(1-methyl-3-(pyridin-2-yl)-1H-pyrazol-4-yl)-6-(p-tolyl)picolinamide]	5.44 µM
COc1cccc(-c2cccc(C(=O)Nc3cn(C)nc3-c3ccccn3)n2)c1 [Compound I-51, 6-(3-methoxyphenyl)-N-(1-methyl-3-(pyridin-2-yl)-1H-pyrazol-4-yl)picolinamide]	59.1 µM
Cn1cc(NC(=O)c2cccc(-c3cccc(N)c3)n2)c(-c2ccccn2)n1 [Compound I-57, 6-(3-aminophenyl)-N-(1-methyl-3-(pyridin-2-yl)-1H-pyrazol-4-yl)picolinamide]	5.27 µM
CNc1cccc(-c2cccc(C(=O)Nc3cn(C)nc3-c3ccccn3)n2)c1 [Compound I-58, N-(1-methyl-3-(pyridin-2-yl)-1H-pyrazol-4-yl)-6-(3-(methylamino)phenyl)picolinamide]	15.2 µM
Cn1cc(NC(=O)c2cccc(-c3cccc(NS(C)(=O)=O)c3)n2)c(-c2ccccn2)n1 [Compound I-60, N-(1-methyl-3-(pyridin-2-yl)-1H-pyrazol-4-yl)-6-(3-(methylsulfonamido)phenyl)picolinamide]	14.8 µM
Cn1cc(NC(=O)c2cccc(C3=CCN(C(=O)OC(C)(C)C)CC3)n2)c(-c2ccccn2)n1 [Compound I-61, tert-butyl 6-((1-methyl-3-(pyridin-2-yl)-1H-pyrazol-4-yl)carbamoyl)-3′,6′-dihydro-[2,4′-bipyridine]-1′(2′H)-carboxylate]	22.3 µM
Cn1cc(NC(=O)c2cccc(C3=CCNCC3)n2)c(-c2ccccn2)n1 [Compound I-62, N-(1-methyl-3-(pyridin-2-yl)-1H-pyrazol-4-yl)-1′,2′,3′,6′-tetrahydro-[2,4′-bipyridine]-6-carboxamide]	28 µM
Cn1cc(NC(=O)c2cccc(C3CCNCC3)n2)c(-c2ccccn2)n1 [Compound I-63, N-(1-methyl-3-(pyridin-2-yl)-1H-pyrazol-4-yl)-6-(piperidin-4-yl)picolinamide]	26.6 µM
Cn1cc(NC(=O)c2cccc(C3=CCCN(C(=O)OC(C)(C)C)C3)n2)c(-c2ccccn2)n1 [Compound I-64, tert-butyl 6-((1-methyl-3-(pyridin-2-yl)-1H-pyrazol-4-yl)carbamoyl)-5′,6′-dihydro-[2,3′-bipyridine]-1′(2′H)-carboxylate]	13.3 µM
COc1ccc(-c2nn(C)cc2NC(=O)c2cccc(-c3cncc(OC(C)C)c3)n2)nc1 [Compound I-70, 5′-isopropoxy-N-(3-(5-methoxypyridin-2-yl)-1-methyl-1H-pyrazol-4-yl)-[2,3′-bipyridine]-6-carboxamide]	2.21 µM
Cc1cncc(-c2cccc(C(=O)Nc3cn(C)nc3N3CCCC3)n2)c1 [Compound I-75, 5′-methyl-N-(1-methyl-3-(pyrrolidin-1-yl)-1H-pyrazol-4-yl)-[2,3′-bipyridine]-6-carboxamide]	15.9 µM
Cc1cncc(-c2cccc(C(=O)Nc3cn(CCN4CCOCC4)nc3-c3ccccn3)n2)c1 [Compound I-84, 5′-methyl-N-(1-(2-morpholinoethyl)-3-(pyridin-2-yl)-1H-pyrazol-4-yl)-[2,3′-bipyridine]-6-carboxamide]	0.444 µM
CCN(CC)CCn1cc(NC(=O)c2cccc(-c3ccncc3)n2)c(-c2ccccn2)n1 [Compound I-104, N-(1-(2-(diethylamino)ethyl)-3-(pyridin-2-yl)-1H-pyrazol-4-yl)-[2,4′-bipyridine]-6-carboxamide]	74.1 µM
O=C(Nc1c[nH]nc1-c1ccccn1)c1cccc(-c2ccncc2)n1 [Compound I-106, N-(3-(pyridin-2-yl)-1H-pyrazol-4-yl)-[2,4′-bipyridine]-6-carboxamide formate]	4.94 µM
COCCn1cc(NC(=O)c2cccc(-c3ccncc3)n2)c(-c2ccccn2)n1 [Compound I-107, N-(1-(2-methoxyethyl)-3-(pyridin-2-yl)-1H-pyrazol-4-yl)-[2,4′-bipyridine]-6-carboxamide formate]	3.58 µM
